Reference: BindingDB's records for doi:10.1021/acschembio.5b00398 (University of Oxford, 2015)

Assays:
Assay in all cases: EMSA
[1] = target: Cyclin-dependent kinase 2 [A144C] (Homo sapiens, UniProt P24941, A144C)
Description: (§1) First, 4.5 μL of 2× kinase solution was added to 0.05 μL of compound (maximum concentration 1.8 mM in 90% DMSO and 10% H2O). To allow for possible slow association, plates with type II inhibitors were incubated for 60 min at 30 °C. The assay started after the addition of 4.5 μL of 2× peptide with ATP and was run for 60 min at 30 °C, after which 16 μL of stop solution was added (100 mM HEPES pH 7.5, 5% DMSO, 0.1% coating reagent (Caliper Lifescience) 10 mM EDTA, pH 8.0, 0.015% BRIJ35). All reactions were performed in 50 mM HEPES, pH 7.5, 1 mM DTT, 0.02% Tween 20, 0.02% BSA, 10 mM betaglycerophosphate, 0.01 mM Na3VO4, 0.6% DMSO, and 2 μM peptide.

[2] = target: Cyclin-dependent kinase 2 [F80T] (Homo sapiens, UniProt P24941, F80T)
Description: as §1

[3] = target: Cyclin-dependent kinase 2 [F80M] (Homo sapiens, UniProt P24941, F80M)
Description: as §1

[4] = target: Cyclin-dependent kinase 2 [C118L,A144C] (Homo sapiens, UniProt P24941, A144C/C118L)
Description: as §1

[5] = target: Cyclin-dependent kinase 2 (Homo sapiens, UniProt P24941)
Description: as §1

[6] = target: Cyclin-dependent kinase 2 [C118L] (Homo sapiens, UniProt P24941, C118L)
Description: as §1

[7] = target: Cyclin-dependent kinase 2 [A144G] (Homo sapiens, UniProt P24941, A144G)
Description: as §1

[8] = target: Cyclin-dependent kinase 2 [C118I] (Homo sapiens, UniProt P24941, C118I)
Description: as §1

- IC50 [1]: > 10 µM
- IC50 [2]: 7.1 µM
- IC50 [3]: > 10 µM
- IC50 [4]: > 10 µM
- IC50 [5]: > 10 µM
- IC50 [6]: > 10 µM
- IC50 [7]: > 10 µM
- IC50 [8]: > 10 µM
SMILES: CC(=O)Nc1cc(Oc2ccc3c(C(=O)Nc4ccc(CN5CCN(C)CC5)c(C(F)(F)F)c4)cccc3c2)ncn1 [K03859 (2)]
